Laboratory results taken from ChEMBL document CHEMBL1136840 (Bioorg Med Chem Lett, 2009).

Target: T1, Carbonic anhydrase 15 (Mus musculus, UniProt Q99N23)
T1 sequence (Q99N23 whole entry): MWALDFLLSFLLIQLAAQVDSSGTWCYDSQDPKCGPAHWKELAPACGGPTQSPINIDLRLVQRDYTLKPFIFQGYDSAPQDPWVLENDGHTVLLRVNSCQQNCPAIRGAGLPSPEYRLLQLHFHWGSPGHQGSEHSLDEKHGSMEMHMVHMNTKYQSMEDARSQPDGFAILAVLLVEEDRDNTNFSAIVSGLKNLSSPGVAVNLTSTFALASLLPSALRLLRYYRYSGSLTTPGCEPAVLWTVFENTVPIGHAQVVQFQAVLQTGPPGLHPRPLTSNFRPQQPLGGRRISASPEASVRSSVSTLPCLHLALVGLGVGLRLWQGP

NS(N)(=O)=O [SULFAMIDE]
Ki: 37.4 µM
